From patent US20230210803A1, “TRANS-CROCETIN COMPOSITIONS AND TREATMENT REGIMENS” (L.E.A.F. HOLDINGS GROUP LLC, priority 2020, published 2023)

Experiments:
[1] = Liposomal CTC and MTC PK in mice; parameters: species or system Balb/c mice; settings: mouse, in vivo
Description: 5 μL of each plasma sample was mixed with 395 μL methanol containing 1% formic acid. Sample mixtures were well mixed by vortexing. […] Samples were vortexed and then centrifuged at 10000 RPM for 10 min at room temperature. 200 μL of supernatant was removed from each sample without disturbing pellet and analyzed by HPLC. If the amount of plasma permitted, this analysis was duplicated.
The concentration of STC in the plasma samples was quantified by standard curve constructed by analyzing plasma samples containing known amount of STC. PK profiles were analyzed.

[2] = mouse, in vivo, iv, 50 mg/kg
HUVECs = assay: Reoxygenation of HUVECs under hypoxic conditions (BioTracker 520 Green Hypoxia Dye, flow cytometry); settings: continuous hypoxic conditions (1% PO2)
Description: For quantification of the hypoxia levels, cells were then incubated for 1 h with 1.5 μM BioTracker 520 Green Hypoxia Dye (Sigma-Aldrich) before being washed and stored in the hypoxia chamber for 1 h. […] Hypoxia levels were quantified with a BD Accuri™ C6 cell analyzer with a direct read-out of the BioTracker probe. The results were analyzed with FlowJo software version 10 (TreeStar).

[3] = PK of L4L-121 versus free TC in healthy mice; settings: mouse, in vivo, one intravenous injection 2.5 mg/kg (normalized to TC)
Excerpt: […]. […] […]. […] […]

| Compound | half-life (t1/2) [1] | T½ [2] | reoxygenation effect (PO2) (HUVECs; 5 μg/mL TC, 30 min post-treatment) | PO2 after loss of efficacy (HUVECs; 3 h after treatment) [% PO2] | half-life [3] [min] | AUC ([3]; read-out: exposure (AUC)) [ng·h/mL] |
| --- | --- | --- | --- | --- | --- | --- |
| CC(/C=C/C=C(\C)C(=O)[O-])=C\C=C\C=C(C)\C=C\C=C(/C)C(=O)[O-].[Na+].[Na+] [STC free drug, sodium trans-crocetinate] | half an hour | less than 0.5 h | – | – | – | – |
| CC(/C=C/C=C(\C)C(=O)O)=C\C=C\C=C(C)\C=C\C=C(/C)C(=O)O [free TC, trans-crocetin free acid] | – | – | up to 15 % PO2 | 5 | 37.1 | 2700 |
